From the supplement of paper PMC4862054

Legend:
Settings in all cases: incubation time: 72 h
MFM-223 [1] = assay: drug sensitivity score (DSS), CellTiter-Glo (DSS (AUC-based score)); higher = stronger drug effect (viability inhibition or cytotoxicity); extreme values may be limits of the assay
Summary of the method: (§1)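 After 72 h of incubation in 384-well plates with compound at 5 concentrations (10-fold steps, 10,000-fold range set per compound), breast cancer cell lines seeded in 20 µl suspension were read first for CellTox Green fluorescence at 485/520 nm. CellTiter-Glo luminescence was measured next, after 10 min at room temperature. Normalisation on each plate used 0.1 % DMSO and a positive kill control, and the drug sensitivity score was computed from the area under the fitted dose-response curve.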

MDA-MB-231 [2] = assay: as above
Summary of the method: as §1

HDQ-P1 [3] = assay: as above
Summary of the method: as §1

Hs578T [4] = assay: as above
Summary of the method: as §1

SK-BR-3 = assay: as above
Summary of the method: as §1

BT-549 [5] = assay: as above
Summary of the method: as §1

CAL-85-1 = assay: as above
Summary of the method: as §1

CAL-120 [6] = assay: as above
Summary of the method: as §1

CAL-51 [7] = assay: as above
Summary of the method: as §1

MDA-MB-468 [8] = assay: as above
Summary of the method: as §1

MDA-MB-436 [9] = assay: as above
Summary of the method: as §1

MDA-MB-453 [10] = assay: as above
Summary of the method: as §1

DU-4475 [11] = assay: as above
Summary of the method: as §1

MFM-223 [12] = assay: drug sensitivity score (DSS), CellTox Green (DSS (AUC-based score)); higher = stronger drug effect (viability inhibition or cytotoxicity); extreme values may be limits of the assay
Summary of the method: as §1

MCF-10A = assay: as above
Summary of the method: as §1

HCC1937 = assay: as above
Summary of the method: as §1

MDA-MB-231 [13] = assay: as above
Summary of the method: as §1

HDQ-P1 [14] = assay: as above
Summary of the method: as §1

Hs578T [15] = assay: as above
Summary of the method: as §1

BT-549 [16] = assay: as above
Summary of the method: as §1

CAL-120 [17] = assay: as above
Summary of the method: as §1

CAL-51 [18] = assay: as above
Summary of the method: as §1

MDA-MB-468 [19] = assay: as above
Summary of the method: as §1

MDA-MB-436 [20] = assay: as above
Summary of the method: as §1

HCC1143 = assay: as above
Summary of the method: as §1

MDA-MB-453 [21] = assay: as above
Summary of the method: as §1

DU-4475 [22] = assay: as above
Summary of the method: as §1

| SMILES | drug sensitivity score (MFM-223 [1]) | drug sensitivity score (MDA-MB-231 [2]) | drug sensitivity score (HDQ-P1 [3]) | drug sensitivity score (Hs578T [4]) | drug sensitivity score (SK-BR-3) | drug sensitivity score (BT-549 [5]) | drug sensitivity score (CAL-85-1) | drug sensitivity score (CAL-120 [6]) | drug sensitivity score (CAL-51 [7]) | drug sensitivity score (MDA-MB-468 [8]) | drug sensitivity score (MDA-MB-436 [9]) | drug sensitivity score (MDA-MB-453 [10]) | drug sensitivity score (DU-4475 [11]) | drug sensitivity score (MFM-223 [12]) | drug sensitivity score (MCF-10A) | drug sensitivity score (HCC1937) | drug sensitivity score (MDA-MB-231 [13]) | drug sensitivity score (HDQ-P1 [14]) | drug sensitivity score (Hs578T [15]) | drug sensitivity score (BT-549 [16]) | drug sensitivity score (CAL-120 [17]) | drug sensitivity score (CAL-51 [18]) | drug sensitivity score (MDA-MB-468 [19]) | drug sensitivity score (MDA-MB-436 [20]) | drug sensitivity score (HCC1143) | drug sensitivity score (MDA-MB-453 [21]) | drug sensitivity score (DU-4475 [22]) |
| --- | --- | --- | --- | --- | --- | --- | --- | --- | --- | --- | --- | --- | --- | --- | --- | --- | --- | --- | --- | --- | --- | --- | --- | --- | --- | --- | --- |
| Cn1cc(C2=Nc3cc(NC(=O)C(N)C4CCCCC4)cc4c3C2=CNNC4=O)cn1 (stereo not given) | 12.2 | 7.52 | 3.25 | 12.1 | 19.1 | 14.6 | 13.3 | 6.28 | 5.76 | 14.4 | 9.88 | 14.3 | 2.68 | 5.76 | 16.2 | 0 | 8.99 | 7.95 | 1.58 | 4.35 | 1.7 | 11 | 3.14 | 0 | 0 | 3.06 | 0 |
| COc1cc2c(cc1O)CC[C@@H]1[C@@H]2CC[C@]2(C)[C@@H](O)CC[C@@H]12 [2-methoxyestradiol] | 4.75 | 5.78 | 0.369 | 7.49 | 5.71 | 10.1 | 5.61 | 4.15 | 5.34 | 4.21 | 6.35 | 5.52 | 2.41 | 6.65 | 1.69 | 0 | 13.2 | 0 | 8.52 | 0.838 | 0.794 | 4.37 | 0 | 0 | 0 | 0 | 0 |
| Cc1sc2c(c1C)C(c1ccc(Cl)cc1)=N[C@@H](CC(=O)OC(C)(C)C)c1nnc(C)n1-2 [(+)JQ1] | 8.38 | 3.61 | 6.56 | 12.8 | 5.66 | 13.3 | 12.7 | 4.19 | 1.66 | 9.62 | 2.63 | 10.7 | 9.61 | 0 | 0 | 13.4 | 0 | 0 | 0 | 0 | 1.56 | 6.31 | 8.47 | 0 | 0 | 0 | 1.14 |
| CC1(C)CCC(CN2CCN(c3ccc(C(=O)NS(=O)(=O)c4ccc(NCC5CCOCC5)c([N+](=O)[O-])c4)c(Oc4cnc5[nH]ccc5c4)c3)CC2)=C(c2ccc(Cl)cc2)C1 [ABT-199] | 0 | 0 | 0 | 0 | 0 | 0 | 0 | 0 | 1.71 | 0.128 | 0 | 0 | 0 | 0 | 0 |  | 3.14 | 0 | 0 | 1.45 | 0.378 | 0 | 13.3 | 0 | 0 | 0 | 0 |
| Oc1ncnc2[nH]ncc12 [Allopurinol] | 0 | 0 | 0 | 0 | 0 | 0 | 0 | 0 | 0 | 0 | 0 | 0 | 0 | 0 | 0 | 0 | 0 | 0 | 0 | 0 | 0 | 0 | 0 | 0 | 0 |  | 0 |
| O=C1CN2Cc3c(ccc(Cl)c3Cl)N=C2N1 [Anagrelide] | 0 | 0 | 0 | 1.32 | 0 | 0 | 0 | 0 | 0.565 | 0 | 0 | 0 | 0 | 0 | 0 | 0 | 0 | 0 | 0 | 0 | 0 | 14.2 | 0 | 0 | 0 | 0 | 0 |
